Source: PubChem BioAssay AID2060891 (Molecular Pharmacology Branch, DTP, NCI, 2025)

System: K98450-129-R-PDC complex spheroid growth, percent test/control
Assay: Anticancer human tumor K98450-129-R-PDC patient-derived colon adenocarcinoma cell line growth inhibition [RAS]
Conditions: for IC50: curve of first compound; for viability, T/C: stronger effect = lower value
Outline: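 Multi-cell-type spheroids: tumor cells plus HUVEC endothelial cells and mesenchymal stem cells. RAS-pathway inhibitors were combined with targeted agents, each dosed in half-log steps down from clinical Cmax, or from 10 microM when Cmax was unknown.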

[1] = second compound 0.00316 µM, first compound 0.0316 µM
[2] = second compound 0.00316 µM, first compound 0.1 µM
[3] = second compound 0.01 µM, first compound 0.0316 µM
[4] = second compound 0.01 µM, first compound 0.1 µM
[5] = second compound 0.0316 µM, first compound 0.0316 µM
[6] = second compound 0.0316 µM, first compound 0.1 µM
[7] = second compound 0.1 µM, first compound 0.0316 µM
[8] = second compound 0.1 µM, first compound 0.1 µM
[9] = second compound 0.316 µM, first compound 0.0316 µM
[10] = second compound 0.316 µM, first compound 0.1 µM
[11] = second compound 1 µM, first compound 0.0316 µM
[12] = second compound 1 µM, first compound 0.1 µM
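Also: spheroids exposed to agents for seven days before the viability readout.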
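For viability, T/C in this document: luminescence used as a proxy for viable cell amount.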

CC(C)n1nc(-c2ccc3oc(N)nc3c2)c2c(N)ncnc21 + C=CC(=O)N1CCN(c2nc(OCC3CCCN3C)nc3c(F)c(-c4nc(N)cc(C)c4C(F)(F)F)c(Cl)cc23)C(C)C1
IC50 (second compound 0.00316 µM): > 100 nM
IC50 (second compound 0.01 µM): > 100 nM
IC50 (second compound 0.0316 µM): 17.8 nM
IC50 (second compound 0.1 µM): 1.5 nM
IC50 (second compound 0.316 µM): < 0.316 nM
IC50 (second compound 1 µM): < 0.316 nM
viability, T/C (second compound 0.00316 µM, first compound 0.000316 µM): 90.9%
viability, T/C (second compound 0.00316 µM, first compound 0.001 µM): 85.2%
viability, T/C (second compound 0.00316 µM, first compound 0.00316 µM): 87.9%
viability, T/C (second compound 0.00316 µM, first compound 0.01 µM): 82.4%
viability, T/C [1]: 76.5%
viability, T/C [2]: 56.9%
viability, T/C (second compound 0.01 µM, first compound 0.000316 µM): 75.9%
viability, T/C (second compound 0.01 µM, first compound 0.001 µM): 78.9%
viability, T/C (second compound 0.01 µM, first compound 0.00316 µM): 75%
viability, T/C (second compound 0.01 µM, first compound 0.01 µM): 70%
viability, T/C [3]: 61.2%
viability, T/C [4]: 51.6%
viability, T/C (second compound 0.0316 µM, first compound 0.000316 µM): 70.2%
viability, T/C (second compound 0.0316 µM, first compound 0.001 µM): 58.8%
viability, T/C (second compound 0.0316 µM, first compound 0.00316 µM): 62.3%
viability, T/C (second compound 0.0316 µM, first compound 0.01 µM): 52.3%
viability, T/C [5]: 47.1%
viability, T/C [6]: 40.5%
viability, T/C (second compound 0.1 µM, first compound 0.000316 µM): 54.7%
viability, T/C (second compound 0.1 µM, first compound 0.001 µM): 51%
viability, T/C (second compound 0.1 µM, first compound 0.00316 µM): 46.1%
viability, T/C (second compound 0.1 µM, first compound 0.01 µM): 44.3%
viability, T/C [7]: 33.9%
viability, T/C [8]: 27.2%
viability, T/C (second compound 0.316 µM, first compound 0.000316 µM): 38.8%
viability, T/C (second compound 0.316 µM, first compound 0.001 µM): 37%
viability, T/C (second compound 0.316 µM, first compound 0.00316 µM): 33.1%
viability, T/C (second compound 0.316 µM, first compound 0.01 µM): 30.9%
viability, T/C [9]: 25.7%
viability, T/C [10]: 20.1%
viability, T/C (second compound 1 µM, first compound 0.000316 µM): 29.1%
viability, T/C (second compound 1 µM, first compound 0.001 µM): 27.5%
viability, T/C (second compound 1 µM, first compound 0.00316 µM): 33.5%
viability, T/C (second compound 1 µM, first compound 0.01 µM): 25%
viability, T/C [11]: 21.4%
viability, T/C [12]: 17.6%

CC1(O)CCCC1n1c(=O)c(C(F)F)cc2cnc(NC3CCN(S(C)(=O)=O)CC3)nc21 (centres undefined) + C=CC(=O)N1CCN(c2nc(OCC3CCCN3C)nc3c(F)c(-c4nc(N)cc(C)c4C(F)(F)F)c(Cl)cc23)C(C)C1
IC50 (second compound 0.00316 µM): 8350 nM
IC50 (second compound 0.01 µM): 2760 nM
IC50 (second compound 0.0316 µM): 696 nM
IC50 (second compound 0.1 µM): 229 nM
IC50 (second compound 0.316 µM): < 31.6 nM
IC50 (second compound 1 µM): < 31.6 nM
viability, T/C [1]: 97.1%
viability, T/C [2]: 90.5%
viability, T/C (second compound 0.00316 µM, first compound 0.316 µM): 80.8%
viability, T/C (second compound 0.00316 µM, first compound 1 µM): 71.1%
viability, T/C (second compound 0.00316 µM, first compound 3.16 µM): 56.2%
viability, T/C (second compound 0.00316 µM, first compound 10 µM): 49.1%
viability, T/C [3]: 86.1%
viability, T/C [4]: 81.3%
viability, T/C (second compound 0.01 µM, first compound 0.316 µM): 71.2%
viability, T/C (second compound 0.01 µM, first compound 1 µM): 65.5%
viability, T/C (second compound 0.01 µM, first compound 3.16 µM): 45%
viability, T/C (second compound 0.01 µM, first compound 10 µM): 41.2%
viability, T/C [5]: 74.9%
viability, T/C [6]: 70.2%
viability, T/C (second compound 0.0316 µM, first compound 0.316 µM): 57.9%
viability, T/C (second compound 0.0316 µM, first compound 1 µM): 47.5%
viability, T/C (second compound 0.0316 µM, first compound 3.16 µM): 34.4%
viability, T/C (second compound 0.0316 µM, first compound 10 µM): 32%
viability, T/C [7]: 55.9%
viability, T/C [8]: 55.6%
viability, T/C (second compound 0.1 µM, first compound 0.316 µM): 48.2%
viability, T/C (second compound 0.1 µM, first compound 1 µM): 34%
viability, T/C (second compound 0.1 µM, first compound 3.16 µM): 26.9%
viability, T/C (second compound 0.1 µM, first compound 10 µM): 22%
viability, T/C [9]: 45.2%
viability, T/C [10]: 42.1%
viability, T/C (second compound 0.316 µM, first compound 0.316 µM): 33%
viability, T/C (second compound 0.316 µM, first compound 1 µM): 27.6%
viability, T/C (second compound 0.316 µM, first compound 3.16 µM): 21.7%
viability, T/C (second compound 0.316 µM, first compound 10 µM): 18.9%
viability, T/C [11]: 31.7%
viability, T/C [12]: 33.7%
viability, T/C (second compound 1 µM, first compound 0.316 µM): 26.6%
viability, T/C (second compound 1 µM, first compound 1 µM): 21%
viability, T/C (second compound 1 µM, first compound 3.16 µM): 19.4%
viability, T/C (second compound 1 µM, first compound 10 µM): 16.1%
